Results on 14 compounds are retold here after patent US10150760B2, “Compounds for use in preparing heterocyclic triazole agonists of the APJ receptor” (AMGEN INC., priority 2016, dated 2018).

What is called EC50 is the concentration that produces a half-maximal response.

The target in this assay is human APJ receptor (Homo sapiens (Human), UniProt P35414). Kind of assay: [35S]GTPγS binding assay on membranes from CHO cells stably expressing human APJ receptor. The settings on record: read-out: Activity hAPJ SPA EC50 IP. The class given is biochemical. In a few lines: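 Agonist-driven [35S]GTPγS (0.2 nM) binding was measured over 90 min at room temperature on human APJ-expressing CHO membranes with bead capture, in buffer containing 3 μM GDP, 200 mM NaCl and 5 mM MgCl2 (pH 7.5). Excess unlabelled GTPγS (100 μM) gave nonspecific signal; EC50 from non-linear fits.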
Sequence of human APJ receptor (P35414 whole entry): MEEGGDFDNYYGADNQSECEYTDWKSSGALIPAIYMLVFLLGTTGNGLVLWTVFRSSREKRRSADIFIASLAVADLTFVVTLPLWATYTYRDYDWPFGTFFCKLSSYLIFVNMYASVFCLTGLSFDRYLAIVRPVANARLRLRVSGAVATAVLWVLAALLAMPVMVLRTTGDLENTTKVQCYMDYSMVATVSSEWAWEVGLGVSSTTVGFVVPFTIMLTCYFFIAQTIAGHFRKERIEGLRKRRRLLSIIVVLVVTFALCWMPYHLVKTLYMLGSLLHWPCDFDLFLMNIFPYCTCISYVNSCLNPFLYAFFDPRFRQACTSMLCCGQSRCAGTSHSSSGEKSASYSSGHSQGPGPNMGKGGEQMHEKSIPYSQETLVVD
Regarding `COc1ncnc(OC)c1-n1c(NS(=O)(=O)[C@@H](C)[C@@H](OC(C)C)c2ncc(Cl)cn2)nnc1[C@H]1CCC(C)(C)O1` (single isomer, unassigned) [Example 279.0, (1S,2S)-1-(5-chloropyrimidin-2-yl)-N-(4-(4,6-dimethoxypyrimidin-5-yl)-5-((R)-5,5-dimethyltetrahydrofuran-2-yl)-4H-1,2,4-triazol-3-yl)-1-isopropoxypropane-2-sulfonamide or (1S,2S)-1-(5-chloropyrimidin-2-yl)-N-(4-(4,6-dimethoxypyrimidin-5-yl)-5-((S)-5,5-dimethyltetrahydrofuran-2-yl)-4H-1,2,4-triazol-3-yl)-1-isopropoxypropane-2-sulfonamide], the EC50 turned out to be 0.68 nM. Next, `COc1ncnc(OC)c1-n1c(NS(=O)(=O)[C@@H](C)[C@@H](OC(C)C)c2ncc(Cl)cn2)nnc1[C@H]1CCC(C)(C)O1` (single isomer, unassigned) [Example 280.0, (1S,2S)-1-(5-chloropyrimidin-2-yl)-N-(4-(4,6-dimethoxypyrimidin-5-yl)-5-((R)-5,5-dimethyltetrahydrofuran-2-yl)-4H-1,2,4-triazol-3-yl)-1-isopropoxypropane-2-sulfonamide or (1S,2S)-1-(5-chloropyrimidin-2-yl)-N-(4-(4,6-dimethoxypyrimidin-5-yl)-5-((S)-5,5-dimethyltetrahydrofuran-2-yl)-4H-1,2,4-triazol-3-yl)-1-isopropoxypropane-2-sulfonamide]: 7.5 nM. Next, `COc1cccc(OC)c1-n1c(NS(=O)(=O)[C@@H](C)[C@@H](OC(C)C)c2ncc(Cl)cn2)nnc1[C@H]1CCOC1` (single isomer, unassigned) [Example 281.0, (1S,2S)-1-(5-chloropyrimidin-2-yl)-N-(4-(2,6-dimethoxyphenyl)-5-((R)-tetrahydrofuran-3-yl)-4H-1,2,4-triazol-3-yl)-1-isopropoxypropane-2-sulfonamide or (1S,25)-1-(5-chloropyrimidin-2-yl)-N-(4-(2,6-dimethoxyphenyl)-5-((S)-tetrahydrofuran-3-yl)-4H-1,2,4-triazol-3-yl)-1-isopropoxypropane-2-sulfonamide]: 0.11 nM. With `COc1cccc(OC)c1-n1c(NS(=O)(=O)[C@@H](C)[C@@H](OC(C)C)c2ncc(Cl)cn2)nnc1[C@H]1CCOC1` (single isomer, unassigned) [Example 282.0, (1S,2S)-1-(5-chloropyrimidin-2-yl)-N-(4-(2,6-dimethoxyphenyl)-5-((R)-tetrahydrofuran-3-yl)-4H-1,2,4-triazol-3-yl)-1-isopropoxypropane-2-sulfonamide or (1S,25)-1-(5-chloropyrimidin-2-yl)-N-(4-(2,6-dimethoxyphenyl)-5-((S)-tetrahydrofuran-3-yl)-4H-1,2,4-triazol-3-yl)-1-isopropoxypropane-2-sulfonamide] the figure was 1.6 nM; with `COc1cccc(OC)c1-n1c(NS(=O)(=O)[C@@H](C)[C@@H](OC(C)C)c2ncc(Cl)cn2)nnc1[C@@H]1COCCO1` (single isomer, unassigned) [Example 283.0, (1S,2S)-1-(5-chloropyrimidin-2-yl)-N-(4-(2,6-dimethoxyphenyl)-5-((R)-1,4-dioxan-2-yl)-4H-1,2,4-triazol-3-yl)-1-isopropoxypropane-2-sulfonamide or (1S,2S)-1-(5-chloropyrimidin-2-yl)-N-(4-(2,6-dimethoxyphenyl)-5-((S)-1,4-dioxan-2-yl)-4H-1,2,4-triazol-3-yl)-1-isopropoxypropane-2-sulfonamide], 0.63 nM.

For the compound `COCC1(n2c(NS(=O)(=O)[C@@H](C)[C@H](OC)c3ncc(Cl)cn3)nnc2[C@H]2CC[C@@H](C)O2)CC1` (single isomer, unassigned) [Example 285.0, (1R,2S)-1-(5-chloropyrimidin-2-yl)-1-methoxy-N-(4-(1-(methoxymethyl)cyclopropyl)-5-((2S,5S)-5-methyltetrahydrofuran-2-yl)-4H-1,2,4-triazol-3-yl)propane-2-sulfonamide or (1R,2S)-1-(5-chloropyrimidin-2-yl)-1-methoxy-N-(4-(1-(methoxymethyl)cyclopropyl)-5-((2R,5R)-5-methyltetrahydrofuran-2-yl)-4H-1,2,4-triazol-3-yl)propane-2-sulfonamide], the EC50 is 64 nM. Next, `COCC1(n2c(NS(=O)(=O)[C@@H](C)[C@H](OC)c3ncc(Cl)cn3)nnc2[C@H]2CC[C@@H](C)O2)CC1` (single isomer, unassigned) [Example 286.0, (1R,2S)-1-(5-chloropyrimidin-2-yl)-1-methoxy-N-(4-(1-(methoxymethyl)cyclopropyl)-5-((2S,5S)-5-methyltetrahydrofuran-2-yl)-4H-1,2,4-triazol-3-yl)propane-2-sulfonamide or (1R,2S)-1-(5-chloropyrimidin-2-yl)-1-methoxy-N-(4-(1-(methoxymethyl)cyclopropyl)-5-((2R,5R)-5-methyltetrahydrofuran-2-yl)-4H-1,2,4-triazol-3-yl)propane-2-sulfonamide]: 1.4 nM.

For the compound `COCCn1c(NS(=O)(=O)[C@@H](C)[C@H](OC)c2ncc(Cl)cn2)nnc1[C@H]1CCC(C)(C)O1` (single isomer, unassigned) [Example 287.0, (1R,2S)-1-(5-chloropyrimidin-2-yl)-N-(5-((R)-5,5-dimethyltetrahydrofuran-2-yl)-4-(2-methoxyethyl)-4H-1,2,4-triazol-3-yl)-1-methoxypropane-2-sulfonamide or (1R,2S)-1-(5-chloropyrimidin-2-yl)-N-(5-((S)-5,5-dimethyltetrahydrofuran-2-yl)-4-(2-methoxyethyl)-4H-1,2,4-triazol-3-yl)-1-methoxypropane-2-sulfonamide], the EC50 was 860 nM.

Regarding `COCCn1c(NS(=O)(=O)[C@@H](C)[C@H](OC)c2ncc(Cl)cn2)nnc1[C@H]1CCC(C)(C)O1` (single isomer, unassigned) [Example 288.0, (1R,2S)-1-(5-chloropyrimidin-2-yl)-N-(5-((R)-5,5-dimethyltetrahydrofuran-2-yl)-4-(2-methoxyethyl)-4H-1,2,4-triazol-3-yl)-1-methoxypropane-2-sulfonamide or (1R,2S)-1-(5-chloropyrimidin-2-yl)-N-(5-((S)-5,5-dimethyltetrahydrofuran-2-yl)-4-(2-methoxyethyl)-4H-1,2,4-triazol-3-yl)-1-methoxypropane-2-sulfonamide], the 50% effective concentration (EC50) stood at 410 nM. With `COCC1(n2c(NS(=O)(=O)[C@@H](C)[C@H](OC)c3ncc(Cl)cn3)nnc2[C@H]2CCC(C)(C)O2)CC1` (single isomer, unassigned) [Example 289.0, (1R,2S)-1-(5-chloropyrimidin-2-yl)-N-(5-((R)-5,5-dimethyltetrahydrofuran-2-yl)-4-(1-(methoxymethypcyclopropyl)-4H-1,2,4-triazol-3-yl)-1-methoxypropane-2-sulfonamide or (1R,2S)-1-(5-chloropyrimidin-2-yl)-N-(5-((S)-5,5-dimethyltetrahydrofuran-2-yl)-4-(1-(methoxymethypcyclopropyl)-4H-1,2,4-triazol-3-yl)-1-methoxypropane-2-sulfonamide] the figure was 1100 nM; with `COCC1(n2c(NS(=O)(=O)[C@@H](C)[C@H](OC)c3ncc(Cl)cn3)nnc2[C@H]2CCC(C)(C)O2)CC1` (single isomer, unassigned) [Example 290.0, (1R,2S)-1-(5-chloropyrimidin-2-yl)-N-(5-((R)-5,5-dimethyltetrahydrofuran-2-yl)-4-(1-(methoxymethypcyclopropyl)-4H-1,2,4-triazol-3-yl)-1-methoxypropane-2-sulfonamide or (1R,2S)-1-(5-chloropyrimidin-2-yl)-N-(5-((S)-5,5-dimethyltetrahydrofuran-2-yl)-4-(1-(methoxymethyl)cyclopropyl)-4H-1,2,4-triazol-3-yl)-1-methoxypropane-2-sulfonamide], 23 nM. Next, `COc1ncnc(OC)c1-n1c(NS(=O)(=O)[C@@H](C)[C@@H](OC(C)C)c2ncc(Cl)cn2)nnc1[C@H]1CCOC1` (single isomer, unassigned) [Example 291.0, (1S,2S)-1-(5-chloropyrimidin-2-yl)-N-(4-(4,6-dimethoxypyrimidin-5-yl)-5-((R)-tetrahydrofuran-3-yl)-4H-1,2,4-triazol-3-yl)-1-isopropoxypropane-2-sulfonamide or (1S,2S)-1-(5-chloropyrimidin-2-yl)-N-(4-(4,6-dimethoxypyrimidin-5-yl)-5-((S)-tetrahydrofuran-3-yl)-4H-1,2,4-triazol-3-yl)-1-isopropoxypropane-2-sulfonamide]: 5.2 nM; `COc1ncnc(OC)c1-n1c(NS(=O)(=O)[C@@H](C)[C@@H](OC(C)C)c2ncc(Cl)cn2)nnc1[C@H]1CCOC1` (single isomer, unassigned) [Example 292.0, (1S,2S)-1-(5-chloropyrimidin-2-yl)-N-(4-(4,6-dimethoxypyrimidin-5-yl)-5-((R)-tetrahydrofuran-3-yl)-4H-1,2,4-triazol-3-yl)-1-isopropoxypropane-2-sulfonamide or (1S,2S)-1-(5-chloropyrimidin-2-yl)-N-(4-(4,6-dimethoxypyrimidin-5-yl)-5-((S)-tetrahydrofuran-3-yl)-4H-1,2,4-triazol-3-yl)-1-isopropoxypropane-2-sulfonamide]: 18 nM; `COc1cccc(OC)c1-n1c(NS(=O)(=O)[C@@H](C)[C@H](OC)c2ncc(Cl)cn2)nnc1[C@H]1CC(=O)N(C)C1` (single isomer, unassigned) [Example 293.0, (1R,2S)-1-(5-chloropyrimidin-2-yl)-N-(4-(2,6-dimethoxyphenyl)-5-((R)-1-methyl-5-oxopyrrolidin-3-yl)-4H-1,2,4-triazol-3-yl)-1-methoxypropane-2-sulfonamide or (1R,2S)-1-(5-chloropyrimidin-2-yl)-N-(4-(2,6-dimethoxyphenyl)-5-((S)-1-methyl-5-oxopyrrolidin-3-yl)-4H-1,2,4-triazol-3-yl)-1-methoxypropane-2-sulfonamide]: 100 nM.
